Test results as given in article PMC12211128, “Safety, tolerability, pharmacokinetic and pharmacodynamic effects of the muscarinic M1 positive allosteric modulator VU0467319 for Alzheimer’s disease: a single ascending-dose study in healthy participants” (Alzheimer's Research & Therapy, 2025).

Tests used:
[1] = tested on: healthy participants; test: Choice reaction time task (CRT); format: in vivo, human; settings: for CRT Median Motor Time / CRT Median Recognition Time / CRT Median Total Time: mean (SD)
Source text: (§1) The choice reaction time (CRT; [31]) task was used to measure psychomotor speed. Outcome variables on the CRT were the median total reaction time, which can be broken down into the recognition time (time from stimulus onset to initiation of movement), and the motor reaction time (time from initiation of movement to stimulus termination).
(§2) Cognitive data: In this exploratory analysis, each outcome variable of the cognitive data was examined in a mixed model analysis of variance with one between-subjects factor of VU319 dose (0, 60, 120, 240, 400, 600 mg) and a within-subjects factor of testing session (pre-dose vs. post-dost administration). Post-hoc analysis compared each of the VU319 dose cohorts against the placebo group. Because the participants were healthy adults with normal cognitive function, we considered effects between no reductions in function to small improvement (d = 0.0–0.20) to be a positive result. For the food effect study, only the participants who received VU319 were examined due to the disproportionately small placebo group (n = 2). A within-subjects ANOVA including food condition (fasted/fed) and testing session (pre-dose vs. post-dose administration) was performed on each outcome variable.
as §1, with “(Hindmarch, 1984))” for “[31])”

[2] = tested on: healthy participants; test: Conner's Continuous Performance Task (CPT); format: in vivo, human
Protocol: (§3) The Conner’s Continuous Performance Task (CPT; [32]) tested sustained attention to a target. Participants saw a string of letters appearing one at a time on a computer screen. Participants were asked to press the spacebar whenever the target stimulus (any letter except for the X) appeared. Participants were asked to withhold responding when a X was presented, which is the non-target stimulus. A set of 15 outcome measures derived from the task report were recorded as key variables. These measures include Hit RT, Hit Standard Error, Commission, Omission and Perseveration errors, Sensitivity, Response style, and the Hit standard error across different interstimulus intervals.
as §2
as §3, with “(Conners et al., 2000))” for “[32])”

[3] = Food effect study 120 mg, Fasting, Post-Drug
[4] = Food effect study 120 mg, Fasting, Pre-Drug
[5] = Food effect study 120 mg, Fed, Post-Drug
[6] = Food effect study 120 mg, Fed, Pre-Drug
[7] = Food effect study 120 mg, Fasting, Post-Drug, mean (SD), n = 9
[8] = Food effect study 120 mg, Fasting, Pre-Drug, mean (SD), n = 9

With `Cn1cc2c(-c3cc(F)c(CN4Cc5ncccc5C4=O)c(F)c3)cccc2n1` [VU319] the “CRT Median Motor Time” value [1, 3] was 299.2 (24.19) ms, the “CRT Median Recognition Time” value [1, 3] was 370.55 (33.17) ms and the “CRT Median Total Time” value [1, 3] was 679.55 (35.68) ms. The “CRT Median Motor Time” value [1, 4] was 302 (40.02) ms, the “CRT Median Recognition Time” value [1, 4] was 384.9 (53.58) ms and the “CRT Median Total Time” value [1, 4] was 691.25 (64.17) ms. The “CRT Median Motor Time” value [1, 5] was 297.25 (36.2) ms, the “CRT Median Recognition Time” value [1, 5] was 369.4 (41.57) ms and the “CRT Median Total Time” value [1, 5] was 673.65 (47.86) ms. The “CRT Median Motor Time” value [1, 6] was 321.5 (36.67) ms, the “CRT Median Recognition Time” value [1, 6] was 365.45 (41.27) ms and the “CRT Median Total Time” value [1, 6] was 695.7 (47.32) ms. For the same compound, the “CRT Median Motor Time” value ([1]; SAD study, 60 mg, Post-Drug) was 330.42 (64.58) ms, the “CRT Median Recognition Time” value ([1]; SAD study, 60 mg, Post-Drug) was 394.92 (82.56) ms and the “CRT Median Total Time” value ([1]; SAD study, 60 mg, Post-Drug) was 734.25 (120.68) ms. The “CRT Median Motor Time” value ([1]; SAD study, 60 mg, Pre-Drug) was 331.08 (35.75) ms, the “CRT Median Recognition Time” value ([1]; SAD study, 60 mg, Pre-Drug) was 391.33 (59.93) ms and the “CRT Median Total Time” value ([1]; SAD study, 60 mg, Pre-Drug) was 735.08 (60.61) ms. For the same compound, the “CRT Median Motor Time” value ([1]; SAD study, 120 mg, Post-Drug) was 332.67 (89.6) ms, the “CRT Median Recognition Time” value ([1]; SAD study, 120 mg, Post-Drug) was 389 (43.6) ms and the “CRT Median Motor Time” value ([1]; SAD study, 120 mg, Pre-Drug) was 329.08 (80.22) ms. For the same compound, the “CRT Median Recognition Time” value ([1]; SAD study, 120 mg, Pre-Drug) was 384.92 (42.09) ms, the “CRT Median Total Time” value ([1]; SAD study, 120 mg, Pre-Drug) was 718.58 (103.36) ms and the “CRT Median Motor Time” value ([1]; SAD study, 240 mg, Post-Drug) was 353.25 (69.11) ms. For the same compound, the “CRT Median Recognition Time” value ([1]; SAD study, 240 mg, Post-Drug) was 399 (83.54) ms, the “CRT Median Total Time” value ([1]; SAD study, 240 mg, Post-Drug) was 759.42 (151.55) ms and the “CRT Median Motor Time” value ([1]; SAD study, 240 mg, Pre-Drug) was 374.58 (64.5) ms. The “CRT Median Recognition Time” value ([1]; SAD study, 240 mg, Pre-Drug) was 410.5 (68.61) ms, the “CRT Median Total Time” value ([1]; SAD study, 240 mg, Pre-Drug) was 800.92 (121.25) ms and the “CRT Median Motor Time” value ([1]; SAD study, 400 mg, Post-Drug) was 334.33 (33) ms. The “CRT Median Recognition Time” value ([1]; SAD study, 400 mg, Post-Drug) was 388.17 (40.47) ms, the “CRT Median Total Time” value ([1]; SAD study, 400 mg, Post-Drug) was 728.92 (57.1) ms and the “CRT Median Motor Time” value ([1]; SAD study, 400 mg, Pre-Drug) was 331 (38.55) ms. For the same compound, the “CRT Median Recognition Time” value ([1]; SAD study, 400 mg, Pre-Drug) was 396.67 (41.84) ms, the “CRT Median Total Time” value ([1]; SAD study, 400 mg, Pre-Drug) was 731 (55.14) ms and the “CRT Median Motor Time” value ([1]; SAD study, 600 mg, Post-Drug) was 282.33 (56.95) ms. For the same compound, the “CRT Median Recognition Time” value ([1]; SAD study, 600 mg, Post-Drug) was 362.67 (52.01) ms, the “CRT Median Total Time” value ([1]; SAD study, 600 mg, Post-Drug) was 649.58 (71.76) ms and the “CRT Median Motor Time” value ([1]; SAD study, 600 mg, Pre-Drug) was 291.42 (46.98) ms. The “CRT Median Recognition Time” value ([1]; SAD study, 600 mg, Pre-Drug) was 364.92 (18.0) ms, the “CRT Median Total Time” value ([1]; SAD study, 600 mg, Pre-Drug) was 662.17 (61.66) ms and the “CRT total, recognition and motor time, effect of dose” value ([1]; SAD study, all p > 0.1) was “no effect of dose, session, nor a dose by session interaction”. For the same compound, the “CRT recognition time, food condition by session interaction, effect size d” value ([1]; food effect study, 120 mg, p = 0.027, quicker recognition post-dose in fasted condition) was 1.76, the “CPT Hit RT, 600 mg vs placebo, effect size d” value ([2]; 600 mg, pre-dose to post-dose) was 1.48 and the “CPT Hit RT, pre- to post-dose change, mean difference vs placebo” value ([2]; 600 mg, p = 0.012) was -28.12. For the same compound, the “CPT Commission Errors” value [2, 7] was 12.6 (6.62), the “CPT Hit Response Time” value [2, 7] was 387.85 (64.33) ms and the “CPT Omission Errors” value [2, 7] was 4.33 (7.16). The “CPT Perseverations” value [2, 7] was 2.56 (6.93), the “CPT Commission Errors” value [2, 8] was 11.6 (5.68) and the “CPT Hit Response Time” value [2, 8] was 395.78 (51.66) ms. For the same compound, the “CPT Omission Errors” value [2, 8] was 4.56 (10.4).
